Assays:
bulrush [1] = test: Test Example 1: herbicidal efficacy on rice paddy weeds pre-emergence; type: in vivo, Scirpus juncoides; details: 21 days
[2] = system: paddy rice plant (cultivar: Nihonbare); test: Test Example 3: phytotoxicity test for transplanted paddy rice plant; type: in vivo; details: transplanted rice, 21 days after treatment
Summary of the method: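 Clay loam soil was placed in a 75 cm^2 plastic pot and flooded to a water depth of 5 cm. Two Nihonbare paddy rice plants at the two-leaf stage were transplanted 1 cm deep and grown in a hot house. After treatment, pots stayed in the hot house for 21 days, and phytotoxicity was then graded against an untreated control.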

false pimpernel [3] = test: Test Example 1: herbicidal efficacy on rice paddy weeds pre-emergence; type: in vivo, Lindernia pyxidaria; details: 21 days
[4] = system: transplanted paddy rice plant and Bulrush; test: Test Example 5: selectivity between transplanted paddy rice plant and weeds; type: in vivo; details: (highest dosage with no phytotoxicity to paddy rice)/(lowest dosage with effective level 4 on Bulrush); rice 3000-100 g/ha, Bulrush 300-10 g/ha; 21 days
Method: (§1) The standard of judgment for herbicidal efficacy (degree of growth inhibition) and phytotoxicity 4 . . . 90%-100% of herbicidal efficacy or phytotoxicity 3 . . . 70%-89% of herbicidal efficacy or phytotoxicity 2 . . . 40%-69% of herbicidal efficacy or phytotoxicity 1 . . . 1%-39% of herbicidal efficacy or phytotoxicity 0 . . . 0% of herbicidal efficacy or phytotoxicity
Phytotoxicity test for transplanted paddy rice plants was carried out, as in Test Example 3, by the treatment of 3000, 1000, 300 and 100 (g/ha of the active ingredient) dosage, and herbicidal test to weed post-emergence was carried out to Burlush seeded as in Test Example 2 treating at 300, 100, 30 and 10 (g/ha) dosage. The pots were kept in a hot house for 21 days after the treatment, and the phytotoxicity and the herbicidal efficacy was investigated and evaluated according to the standard in Test Example 1 by comparing with the untreated control. […] Further, as a comparative compound, the compound No. 6-28 described in the JP-A-2004-107322 was used.

bulrush [5] = test: Test Example 4: low dosage test for rice paddy weeds; type: in vivo, Scirpus juncoides; details: 300 g/ha as an active ingredient; plants treated at the one leaf stage; 21 days after treatment; vs untreated control
Source text: as §1
A 75 cm^2 plastic pot was filled with soil (clay loam) and planted seeds of bulrush which is a rice paddy weed. After covering the top with 75 cm^3 soil, the pot was filled with water so that the soil submerged under 5 cm depth of water and kept in a hot house. The test plants, at the one leaf stage, were treated with the solution of a formulation containing the compound of the present invention as an active ingredient at the predetermined effective dosage (300 g/ha as an active ingredient). The pots were kept in a hot house for 21 days after the treatment and the herbicidal efficacy was investigated and evaluated according to the standard in Test Example 1 by comparing with the untreated control. Further, as a comparative compound, the compound No. 6-28 described in the JP-A-2004-107322 was used.

bulrush [6] = test: Test Example 2: herbicidal efficacy on rice paddy weeds post-emergence; type: in vivo, Scirpus juncoides; details: post-emergence, one leaf stage, 21 days after treatment
false pimpernel [7] = test: as above; type: in vivo, Lindernia pyxidaria; details: post-emergence, one leaf stage, 21 days after treatment
barnyard glass = test: as above; type: in vivo, Echinochloa crus-galli; details: post-emergence, one leaf stage, 21 days after treatment
Summary of the method: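 Efficacy on paddy weeds was scored on a 0 to 4 growth-inhibition scale: 4 for 90%-100%, 3 for 70%-89%, 2 for 40%-69%, 1 for 1%-39% and 0 for 0%. Barnyard glass was grown in clay loam in 75 cm^2 pots under 5 cm of water in a hot house. It was compared with untreated pots 21 days after treatment.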

[8] = dosage 1000 g/ha, treated 5 days after transplantation

Structure (SMILES)	Bulrush pre (herbicidal efficacy grade) (bulrush [1]; dosage 300 g/ha)	Phytotoxicity to paddy rice ([2]; dosage 300 g/ha)	False pimpernel pre (herbicidal efficacy grade) (false pimpernel [3]; dosage 300 g/ha)	Selective Index [4]	Herbicide effect to Bulrush (bulrush [5])	Bulrush post (herbicidal efficacy grade) (bulrush [6]; dosage 300 g/ha)	False pimpernel post (herbicidal efficacy grade) (false pimpernel [7]; dosage 300 g/ha)	Bulrush pre (herbicidal efficacy grade) (bulrush [1]; dosage 1000 g/ha)	Phytotoxicity to paddy rice [2, 8]	False pimpernel pre (herbicidal efficacy grade) (false pimpernel [3]; dosage 1000 g/ha)	Bulrush post (herbicidal efficacy grade) (bulrush [6]; dosage 1000 g/ha)	False pimpernel post (herbicidal efficacy grade) (false pimpernel [7]; dosage 1000 g/ha)	Burnyard grass post (herbicidal efficacy grade) (barnyard glass; dosage 1000 g/ha)	Burnyard grass post (herbicidal efficacy grade) (barnyard glass; dosage 300 g/ha)
O=C1OC2(CCC2)CN1Cc1ccccc1NS(=O)(=O)C(F)(F)F [1-87]	4 (90%-100% of herbicidal efficacy or phytotoxicity)	1 (1%-39% of herbicidal efficacy or phytotoxicity)	4 (90%-100% of herbicidal efficacy or phytotoxicity)	3	3 (70%-89% of herbicidal efficacy or phytotoxicity)	4 (90%-100% of herbicidal efficacy or phytotoxicity)	4 (90%-100% of herbicidal efficacy or phytotoxicity)	–	–	–	–	–	–	–
CCC1(CC)CN(Cc2ccccc2N(C(=O)OC)S(=O)(=O)C(F)(F)F)C(=O)O1 [1-109]	–	–	–	≧30	4 (90%-100% of herbicidal efficacy or phytotoxicity)	–	–	4 (90%-100% of herbicidal efficacy or phytotoxicity)	1 (1%-39% of herbicidal efficacy or phytotoxicity)	4 (90%-100% of herbicidal efficacy or phytotoxicity)	4 (90%-100% of herbicidal efficacy or phytotoxicity)	4 (90%-100% of herbicidal efficacy or phytotoxicity)	–	–
COCC1(C)CN(Cc2ccccc2N(C(=O)OC)S(=O)(=O)C(F)(F)F)C(=O)O1 (stereo not shown) [1-147]	4 (90%-100% of herbicidal efficacy or phytotoxicity)	1 (1%-39% of herbicidal efficacy or phytotoxicity)	4 (90%-100% of herbicidal efficacy or phytotoxicity)	10	4 (90%-100% of herbicidal efficacy or phytotoxicity)	4 (90%-100% of herbicidal efficacy or phytotoxicity)	4 (90%-100% of herbicidal efficacy or phytotoxicity)	–	–	–	–	–	–	–
COC(=O)N(c1ccccc1CN1CC(C(F)(F)F)OC1=O)S(=O)(=O)C(F)(F)F (stereo not shown) [1-151]	–	–	–	3	3 (70%-89% of herbicidal efficacy or phytotoxicity)	–	–	4 (90%-100% of herbicidal efficacy or phytotoxicity)	1 (1%-39% of herbicidal efficacy or phytotoxicity)	4 (90%-100% of herbicidal efficacy or phytotoxicity)	4 (90%-100% of herbicidal efficacy or phytotoxicity)	4 (90%-100% of herbicidal efficacy or phytotoxicity)	–	–
CC(C)COC(=O)N(c1ccccc1CN1CC(C)(COCc2ccccc2)OC1=O)S(=O)(=O)C(F)(F)F (stereo not shown) [Compound 1-174]	–	–	–	–	–	–	–	4 (90%-100% of herbicidal efficacy or phytotoxicity)	1 (1%-39% of herbicidal efficacy or phytotoxicity)	4 (90%-100% of herbicidal efficacy or phytotoxicity)	4 (90%-100% of herbicidal efficacy or phytotoxicity)	4 (90%-100% of herbicidal efficacy or phytotoxicity)	4 (90%-100% of herbicidal efficacy or phytotoxicity)	–
COC(=O)N(c1ccccc1CN1CC(C)(COCc2ccccc2)OC1=O)S(=O)(=O)C(F)(F)F (stereo not shown) [Compound 1-175]	–	–	–	–	–	–	–	4 (90%-100% of herbicidal efficacy or phytotoxicity)	1 (1%-39% of herbicidal efficacy or phytotoxicity)	4 (90%-100% of herbicidal efficacy or phytotoxicity)	4 (90%-100% of herbicidal efficacy or phytotoxicity)	4 (90%-100% of herbicidal efficacy or phytotoxicity)	4 (90%-100% of herbicidal efficacy or phytotoxicity)	–
CC(C)COC(=O)N(c1ccccc1CN1CC(C)(C2OC2(C)C)OC1=O)S(=O)(=O)C(F)(F)F (stereo not shown) [Compound 1-177]	–	–	–	–	–	–	–	4 (90%-100% of herbicidal efficacy or phytotoxicity)	1 (1%-39% of herbicidal efficacy or phytotoxicity)	4 (90%-100% of herbicidal efficacy or phytotoxicity)	4 (90%-100% of herbicidal efficacy or phytotoxicity)	4 (90%-100% of herbicidal efficacy or phytotoxicity)	4 (90%-100% of herbicidal efficacy or phytotoxicity)	–
CCC1(C)CN(Cc2ccccc2NS(=O)(=O)C(F)(F)F)C(=S)O1 (stereo not shown) [Compound 1-180]	–	–	–	–	–	–	–	4 (90%-100% of herbicidal efficacy or phytotoxicity)	2 (40%-69% of herbicidal efficacy or phytotoxicity)	4 (90%-100% of herbicidal efficacy or phytotoxicity)	4 (90%-100% of herbicidal efficacy or phytotoxicity)	4 (90%-100% of herbicidal efficacy or phytotoxicity)	4 (90%-100% of herbicidal efficacy or phytotoxicity)	–
CCC1(C)CN(Cc2ccccc2N(C(=O)OC)S(=O)(=O)C(F)(F)F)C(=S)O1 (stereo not shown) [Compound 1-182]	–	–	–	–	–	–	–	4 (90%-100% of herbicidal efficacy or phytotoxicity)	1 (1%-39% of herbicidal efficacy or phytotoxicity)	4 (90%-100% of herbicidal efficacy or phytotoxicity)	4 (90%-100% of herbicidal efficacy or phytotoxicity)	4 (90%-100% of herbicidal efficacy or phytotoxicity)	4 (90%-100% of herbicidal efficacy or phytotoxicity)	–
CC(C)COC(=O)N(c1ccccc1CN1C(=O)SC(C)C1=O)S(=O)(=O)C(F)(F)F (stereo not shown) [Compound 1-200]	–	–	–	–	–	–	–	4 (90%-100% of herbicidal efficacy or phytotoxicity)	0 (0% of herbicidal efficacy or phytotoxicity)	2 (40%-69% of herbicidal efficacy or phytotoxicity)	3 (70%-89% of herbicidal efficacy or phytotoxicity)	3 (70%-89% of herbicidal efficacy or phytotoxicity)	1 (1%-39% of herbicidal efficacy or phytotoxicity)	–
COC1N(Cc2ccccc2NS(=O)(=O)C(F)(F)F)C(=O)OC1(C)C (stereo not shown) [Compound No. 1-195, 4-methoxy-5,5-dimethyl-3-[2-(trifluoromethanesulfonylamino)benzyl]oxazolidin-2-one]	4 (90%-100% of herbicidal efficacy or phytotoxicity)	2 (40%-69% of herbicidal efficacy or phytotoxicity)	1 (1%-39% of herbicidal efficacy or phytotoxicity)	–	–	4 (90%-100% of herbicidal efficacy or phytotoxicity)	3 (70%-89% of herbicidal efficacy or phytotoxicity)	–	–	–	–	–	–	1 (1%-39% of herbicidal efficacy or phytotoxicity)
